# Where a name gives a salt, the structure may show the parent alone.
# Experiments:
# Type in all cases: physicochemical
# [1] = Stability of ceftolozane salts at 40° C. and 75% RH for one week, loss of purity by HPLC; settings: 40° C. and 75% relative humidity, one week (7 days), initial purity minus purity after storage
# Description: (§1) The ceftolozane salt forms provided herein can also be evaluated for stability upon exposure to high temperatures and humidity. The stability evaluation of the ceftolozane salts can be carried out by HPLC analysis using, for example, the method described in Example 1. For examples, the ceftolozane salt forms can be subjected to 40° C. and 75% relative humidity (RH) for one week (7 days) or, 25° C. and 60% relative humidity (RH) for two weeks or for four weeks. The purity and loss of purity (LOP) of these samples can be evaluated by measuring the amount of ceftolozane by HPLC (e.g., Example 1). The results of the stability analysis are summarized in the following Table B: Unless otherwise indicated herein, the HPLC method of Example 1 was used to measure ceftolozane purity disclosed herein. The loss of purity (LOP) was calculated as the difference between the initial ceftolozane purity and the ceftolozane purity after being subject to the conditions of the stability test (e.g., at 40° C. and 75% relative humidity (RH) for one week), wherein the purity was measured using the HPLC method described below. Standards and samples are prepared in 50 mM sodium perchlorate monohydrate, pH 4.00. A quantitation standard (Standard Solution 1) and check standard (Standard Solution 2) are both prepared at the target working concentration of 0.3 mg/mL taking into consideration the potency, as-is of the standard. The samples are prepared at the target active concentration of 0.3 mg/mL by preparing a sample at 0.04% (w/v). [table]
# [2] = Stability of ceftolozane salts at 25° C. and 60% RH for two or four weeks, loss of purity by HPLC; settings: 25° C. and 60% relative humidity; for 4 w, Loss of Purity: four weeks; for 2 w, Loss of Purity: two weeks (14 days)
# Description: as §1
# [3] = Dry stability of lyophilized ceftolozane zwitterion/stabilizing agent compositions at 40° C./75% RH, purity by HPLC; settings: lyophilized solid
# Description: The following HPLC method was used to measure ceftolozane purity disclosed in Examples 13 through 15.
# HPLC conditions for Ceftolozane Purity:
# Mobile Phase A: 50 mM Sodium Perchlorate, pH 2.5
# Mobile Phase B: 20% ACN in 63 mM Sodium Perchlorate, pH 2.5
# Column: Phenomenex Develosil ODS-UG-5, 5 μm, 250 mm×4.6 mm
# Sample Solution: 1 mg/mL in water
# Active ceftolozane zwitterion (“Cef”; 1620 mg; 2.1 mmol) and sodium chloride (122 mg; 2.1 mmol) were dissolved in 8.25 mL of sterile water to obtain pale yellowish solution. Aliquoted the complex solution to 5-mL freeze drying vials (0.45 mL per vial, 18 vials in total) which were positioned in a lyophilization tray. The key lyophilization conditions included freezing at −50° C. to −55° C. for 2 hours, primary drying at −30° C., 50 millitorrs for 40 hours, secondary drying at 20° C., 50 millitorrs for 7 hours, and storing at 5° C., 600 millitorrs until harvesting. The sublimate was condensed at −60° C. The freeze drying vials were harvested, inserted with proper stoppers, sealed with crimp seals, and labeled as Cef:NaCl(1:1) for dry stability evaluation at 40° C./75% RH. The vials were stored at 40° C. and 75% relative humidity (RH).
# The following compositions were prepared analogously: ceftolozane zwitterion and sodium chloride (1:0.5) complex, ceftolozane zwitterion and sodium chloride (1:2) complex, ceftolozane zwitterion and sodium sulfate (1:1) complex, ceftolozane zwitterion and sodium sulfate (1:0.5) complex, ceftolozane zwitterion and sodium sulfate (1:2) complex, ceftolozane zwitterion and calcium chloride (1:1) complex, ceftolozane zwitterion and calcium chloride (1:0.5) complex, ceftolozane zwitterion and calcium chloride (1:2) complex, ceftolozane zwitterion and magnesium chloride (1:1) complex, ceftolozane zwitterion and magnesium chloride (1:0.5) complex, ceftolozane zwitterion and magnesium chloride (1:2) complex.
# These compositions and ceftolozane zwitterion alone were evaluated for stability at 40° C./75% RH by HPLC. The dry samples were dissolved in water for loading onto the column.
# [4] = listed as phosphate salt of ceftolozane
Molecule,"1 w, Loss of Purity [1] [%]","4 w, Loss of Purity [2] [%]","2 w, Loss of Purity [2] [%]",also measured
"Cn1c(N)c(NC(=O)NCCN)c[n+]1CC1=C(C(=O)O)N2C(=O)[C@@H](NC(=O)/C(=N\OC(C)(C)C(=O)O)c3nsc(N)n3)[C@H]2SC1 [Ceftolozane chloride, ceftolozane chloride]",7.5,2.9,1.0,"1 w, Loss of Purity ([1]; listed as chloride salt of ceftolozane): 7.5%"
ceftolozane bromide,13.3,2.3,0.4,"2 w, Loss of Purity ([2]; listed as bromide salt of ceftolozane): 0.4%"
ceftolozane edisylate,9.6,1.7,1.5,"4 w, Loss of Purity ([2]; listed as edisylate salt of ceftolozane): 1.7%"
ceftolozane phosphate,30.9,13.7,4.5,"1 w, Loss of Purity [1, 4]: 30.9%; 4 w, Loss of Purity [2, 4]: 13.7%; 2 w, Loss of Purity [2, 4]: 4.5%"

# Now from value to molecule, other results behind:
"1 w, Loss of Purity [1] [%]","4 w, Loss of Purity [2] [%]","2 w, Loss of Purity [2] [%]",Molecule,also measured
22.4,5.1,1.2,"Cn1c(N)c(NC(=O)NCCN)c[n+]1CC1=C(C(=O)O)N2C(=O)[C@@H](NC(=O)/C(=N\OC(C)(C)C(=O)O)c3nsc(N)n3)[C@H]2SC1 [Ceftolozane sulfate, 5-amino-4-{[(2-aminoethyl)carbamoyl]amino}-2-{[(6R,7R)-7-({(2Z)-2-(5-amino-1,2,4-thiadiazol-3-yl)-2-[(1-carboxy-1-methylethoxy)imino]acetyl}amino)-2-carboxy-8-oxo-5-thia-1-azabicyclo[4.2.0]oct-2-en-3-yl]methyl}-1-methyl-1H-pyrazolium monosulfate, reference compound]",–
14.4,7.4,3.6,"Cn1c(N)c(NC(=O)NCCN)c[n+]1CC1=C(C(=O)[O-])N2C(=O)[C@@H](NC(=O)/C(=N\OC(C)(C)C(=O)O)c3nsc(N)n3)[C@H]2SC1 [Ceftolozane zwitterion, (6R,7R)-3-[(5-amino-4-{[(2-aminoethyl)carbamoyl]amino}-1-methyl-1H-pyrazol-2-ium-2-yl)methyl]-7-({(2Z)-2-(5-amino-1,2,4-thiadiazol-3-yl)-2-[(1-carboxy-1-methylethoxy)imino]acetyl}amino)-8-oxo-5-thia-1-azabicyclo[4.2.0]oct-2-ene-2-carboxylate]","% purity of Ceftolozane, 3 day ([3]; 3 day at 40° C./75% RH): 88.0%; % purity of Ceftolozane, 7 day ([3]; 7 day at 40° C./75% RH): 84.5%; % purity of Ceftolozane, 14 day ([3]; 14 day at 40° C./75% RH): 77.9%; % purity of Ceftolozane, T0 ([3]; T0 (start of storage at 40° C./75% RH)): 92.6%"
22.6,5.8,3.5,ceftolozane ketoglutarate,–
9.3,5.2,3.6,ceftolozane maleate,–
8.3,4.3,1.3,ceftolozane mesylate,–

# Reference: patent publication US10000510B2, “Salt forms of ceftolozane” (Merck Sharp & Dohme Corp., priority 2014, dated 2018)
